The test addresses T1, crosslinked smooth muscle actomyosin (chicken gizzard smooth muscle myosin subfragment-1 crosslinked to cardiac or skeletal actin) (Gallus gallus, UniProt P10587).
T1 construct: chicken gizzard smooth muscle myosin subfragment-1; from tissue; host or cells: chicken gizzard
The test can be described thus: Lead optimization pyruvate kinase/horseradish peroxidase/pyruvate oxidase-coupled ATPase assay (compound dose response). It counts as biochemical. The settings on record: read-out: IC50 Arithmetic Mean. A digest of the protocol:
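IC50 is the midpoint of a 4-parameter dose–response fit of Amplex Red fluorescence (480/615 nm). Buffer was 12 mM potassium PIPES pH 7.00 at 22 °C with 100 mM KCl, 2 mM MgCl2, 0.15 mM ATP and 2 mM phosphate, with PK/pyruvate oxidase/HRP coupling. Enzyme: smooth muscle myosin S1 crosslinked to cardiac or skeletal actin, dosed empirically by activity.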

Structures are written as SMILES.

The IC50 is the concentration needed to halve the response being measured. Consider `CCc1ccc(NC(=O)OCC2(C(=O)NCc3ccccc3Cl)CCN(C)CC2)cc1` [N-[(2-chlorophenyl)methyl](4-{[N-(4-ethylphenyl)carbamoyloxy]methyl}-1-methyl(4-piperidyl))carboxamide], for which the IC50 was 4.93 µM.
As to `CCc1ccc(NC(=O)OCC2(C(=O)NCc3ccccc3Cl)CCN(C(=O)c3ccc(C(=O)c4ccccc4)cc3)CC2)cc1` [N-[(2-chlorophenyl)methyl](4-{[N-(4-ethylphenyl)carbamoyloxy]methyl}-1-{[4-(phenylcarbonyl)phenyl]carbonyl}(4-piperidyl))carboxamide], the IC50 is 4.95 µM.
Turning to `Cc1ccc(NC(=O)OCC2(C(=O)NCc3ccccc3Cl)CCOCC2)cc1` [N-[(2-chlorophenyl)methyl](4-{[N-(4-methylphenyl)carbamoyloxy]methyl}(2H-3,4,5,6-tetrahydropyran-4-yl))carboxamide], the IC50 was 0.697 µM.
In the case of `Cc1cccc(F)c1NC(=O)OCC1(C(=O)NCc2ccccc2Cl)CCOCC1` [N-[(2-chlorophenyl)methyl](4-{[N-(6-fluoro-2-methylphenyl)carbamoyloxy]methyl}(2H-3,4,5,6-tetrahydropyran-4-yl))carboxamide], the IC50 was 14.2 µM.
As to `CCc1ccc(NC(=O)OCC2(C(=O)NCc3ccccc3Cl)CCCCC2)cc1` [N-[(2-chlorophenyl)methyl]({[N-(4-ethylphenyl)carbamoyloxy]methyl}cyclohexyl)carboxamide], the IC50 came out at 0.238 µM.
The figure for `CCc1ccc(NC(=O)OCC2(C(=O)NCc3ccccc3Cl)CC2)cc1` [N-[(2-chlorophenyl)methyl]({[N-(4-ethylphenyl)carbamoyloxy]methyl}cyclopropyl)carboxamide] is 3.05 µM.
With `CCc1ccc(NC(=O)NC(C)(C)C(=O)NCc2ccccc2Cl)cc1` [N-[(2-chlorophenyl)methyl]-2-{[(4-ethylphenyl)amino]carbonylamino}-2-methylpropanamide], the IC50 is 13.6 µM.
Consider `CCc1ccc(NC(=O)OCC(C)(C)C(=O)NCc2ccccc2Cl)cc1` [N-[(2-chlorophenyl)methyl]-3-[N-(4-ethylphenyl)carbamoyloxy]-2,2-dimethylpropanamide], for which the IC50 came to 2.51 µM.
Then `CCc1ccc(NC(=O)OCC(C)(NC(=O)CO)C(=O)NCc2ccccc2Cl)cc1` (stereo not drawn) [N-[(2-chlorophenyl)methyl]-3-[N-(4-ethylphenyl)carbamoyloxy]-2-(2-hydroxyacetylamino)-2-methylpropanamide], with 9.18 µM; and `CCc1ccc(NC(=O)OCC(C)(NC(=O)OC)C(=O)NCc2ccccc2Cl)cc1` (stereo not drawn) [N-[(2-chlorophenyl)methyl]-3-[N-(4-ethylphenyl)carbamoyloxy]-2-(methoxycarbonylamino)-2-methylpropanamide], with 4.09 µM; and `CCc1ccc(NC(=O)NCC(C)(C)C(=O)NCc2ccccc2Cl)cc1` [N-[(2-chlorophenyl)methyl]-3-{[(4-ethylphenyl)amino]carbonylamino}-2,2-dimethylpropanamide], with 8.82 µM.
Take `CCc1ccc(NC(=O)OCCC(C)(C)C(=O)NCc2ccccc2Cl)cc1` [N-[(2-chlorophenyl)methyl]-4-[N-(4-ethylphenyl)carbamoyloxy]-2,2-dimethylbutanamide]: the IC50 was determined as 0.235 µM.
Consider `CCc1ccc(NC(=O)OCCCC(=O)NCc2ccccc2Cl)cc1` [N-[(2-chlorophenyl)methyl]-4-[N-(4-ethylphenyl)carbamoyloxy]butanamide], for which the IC50 worked out at 3.43 µM.
The figure for `CCc1ccc(NC(=O)NCCC(C)(C)C(=O)NCc2ccccc2Cl)cc1` [N-[(2-chlorophenyl)methyl]-4-{[N-(4-ethylphenyl)carbamoyl]amino}-2,2-dimethylbutanamide] is 4.73 µM; for `CCc1ccc(NC(=O)CCC(C)(C)C(=O)NCc2ccccc2Cl)cc1` [N-[(2-chlorophenyl)methyl]-N′-(4-ethylphenyl)-2,2-dimethylpentane-1,5-diamide] it is 18.5 µM.

The values are drawn from US8071625B2, “Certain chemical entities, compositions, and methods” (Cytokinetics, Inc., priority 2006, dated 2011).
